Assay results published in US8846909B2, “Bicyclic heteroaryl kinase inhibitors and methods of use” (University of Rochester, priority 2010, dated 2014).
Where a name gives a salt, the structure may show the parent alone.

Target: T1, MLK3 (Homo sapiens, UniProt Q16584)
T1 construct: purchased Dundee DU8313
Assay: Radiometric filter plate MLK3 assay; for MK3 IC50: 2 µM cold ATP (Km)
Format: biochemical
Conditions: not given
Procedure: After a twenty minute incubation, the reactions were washed through filter plates and read on a scintillation counter. Results are shown in Table 10 below, in which +++ indicates ≦0.1 μM, ++ indicates >0.1 μM and ≦1 μM, and + indicates >1 μM.

T1 sequence (Q16584 whole entry): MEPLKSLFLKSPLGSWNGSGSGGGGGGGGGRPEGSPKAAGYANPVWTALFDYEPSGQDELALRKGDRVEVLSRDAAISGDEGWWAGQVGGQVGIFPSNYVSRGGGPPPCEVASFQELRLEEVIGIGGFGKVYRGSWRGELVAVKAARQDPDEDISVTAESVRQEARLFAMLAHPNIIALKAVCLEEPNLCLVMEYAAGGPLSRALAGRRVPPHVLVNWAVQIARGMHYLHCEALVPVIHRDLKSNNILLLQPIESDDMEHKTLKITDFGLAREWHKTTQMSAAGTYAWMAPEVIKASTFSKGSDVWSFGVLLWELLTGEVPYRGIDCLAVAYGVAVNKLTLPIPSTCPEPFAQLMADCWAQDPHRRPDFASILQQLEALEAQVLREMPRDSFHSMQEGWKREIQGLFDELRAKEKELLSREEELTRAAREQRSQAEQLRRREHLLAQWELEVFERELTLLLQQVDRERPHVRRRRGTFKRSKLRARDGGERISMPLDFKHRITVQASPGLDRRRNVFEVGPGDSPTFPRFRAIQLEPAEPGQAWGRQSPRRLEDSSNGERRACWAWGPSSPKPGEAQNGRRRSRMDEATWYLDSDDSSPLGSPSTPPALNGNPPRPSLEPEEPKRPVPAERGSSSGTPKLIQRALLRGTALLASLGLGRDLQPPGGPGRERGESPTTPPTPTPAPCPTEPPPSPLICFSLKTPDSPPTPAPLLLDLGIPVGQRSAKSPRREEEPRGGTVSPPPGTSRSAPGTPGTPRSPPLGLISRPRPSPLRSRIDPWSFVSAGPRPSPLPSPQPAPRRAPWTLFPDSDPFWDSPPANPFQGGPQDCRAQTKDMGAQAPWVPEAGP

Structure (SMILES)	IC50 [nM]
CC(C)OC(=O)N1CCN(Cc2ccc(-c3cnc4[nH]cc(-c5ccc6[nH]ccc6c5)c4c3)cc2)CC1 [Example 185]	100 to 1000

Same assay, conditions: read-out: MK3 IC50

Structure (SMILES)	IC50 [nM]
COc1cc(-c2cnc3c(c2)C(Cc2ccc(C(N)=O)cc2)C(=O)N3)cc(OC)c1OC (centres unmarked) [Example 138, 4-[2-oxo-5-(3,4,5-trimethoxy-phenyl)-2,3-dihydro-1H-pyrrolo[2,3-b]pyridin-3-ylmethyl]-benzamide]	> 1000
CN1CCN(Cc2ccc(-c3cnc4[nH]cc(-c5ccc6[nH]ccc6c5)c4c3)cc2)CC1=O [Example 141, 4-{4-[3-(1H-indol-5-yl)-1H-pyrrolo[2,3-b]pyridin-5-yl]-benzyl}-1-methyl-piperazin-2-one]	< 100
O=C1CN(Cc2ccc(-c3cnc4[nH]cc(-c5ccc6[nH]ccc6c5)c4c3)cc2)CCN1 [Example 142, 4-{4-[3-(1H-indol-5-yl)-1H-pyrrolo[2,3-b]pyridin-5-yl]-benzyl}-piperazin-2-one]	< 100
CN1CCN(Cc2cccc(-c3cnc4[nH]cc(-c5ccc6[nH]ccc6c5)c4c3)c2)CC1=O [Example 143, 4-{3-[3-(1H-indol-5-yl)-1H-pyrrolo[2,3-b]pyridin-5-yl]-benzyl}-1-methyl-piperazin-2-one]	< 100
CC(C)(C)OC(=O)N1CCN(Cc2ccc(-c3cnc4[nH]cc(-c5ccc6[nH]ccc6c5)c4c3)cc2)CC1 [Example 144, 4-{4-[3-(1H-indol-5-yl)-1H-pyrrolo[2,3-b]pyridin-5-yl]-benzyl}-piperazine-1-carboxylic acid tert-butyl ester]	< 100
CN1CCN(C(=O)c2ccc(-c3cnc4[nH]cc(-c5ccc6[nH]ccc6c5)c4c3)cc2)CC1 [Example 145, {4-[3-(1H-indol-5-yl)-1H-pyrrolo[2,3-b]pyridin-5-yl]-phenyl}-(4-methyl-piperazin-1-yl)-methanone]	100 to 1000
CC(=O)N1CCN(C(=O)c2ccc(-c3cnc4[nH]cc(-c5ccc6[nH]ccc6c5)c4c3)cc2)CC1 [Example 146, 1-(4-{4-[3-(1H-indol-5-yl)-1H-pyrrolo[2,3-b]pyridin-5-yl]-benzoyl}piperazin-1-yl)-ethanone]	< 100
CC(C)(C)OC(=O)N1CCN(C(=O)c2ccc(-c3cnc4[nH]cc(-c5ccc(C(N)=O)cc5)c4c3)cc2)CC1 [Example 148, 4-{4-[3-(4-carbamoyl-phenyl)-1H-pyrrolo[2,3-b]pyridin-5-yl]-benzoyl}-piperazine-1-carboxylic acid tert-butyl ester]	< 100
NC(=O)c1ccc(-c2c[nH]c3ncc(-c4ccc(C(=O)N5CCNCC5)cc4)cc23)cc1 [Example 149, 4-{5-[4-(piperazine-1-carbonyl)-phenyl]-1H-pyrrolo[2,3-b]pyridin-3-yl}-benzamide, hydrochloride salt]	< 100
CC(C)(C)OC(=O)N1CCN(C(=O)c2cccc(-c3cnc4[nH]cc(-c5ccc(C(N)=O)cc5)c4c3)c2)CC1 [Example 151, 4-{3-[3-(4-carbamoyl-phenyl)-1H-pyrrolo[2,3-b]pyridin-5-yl]-benzoyl}-piperazine-1-carboxylic acid tert-butyl ester]	< 100
COc1cc(-c2cc3c(-c4ccc(C(N)=O)cc4)c[nH]c3[n+]([O-])c2)cc(OC)c1OC [Example 154, 4-[7-oxy-5-(3,4,5-trimethoxy-phenyl)-1H-pyrrolo[2,3-b]pyridin-3-yl]benzamide]	100 to 1000
CN1CCN(Cc2cccc(-c3cnc4[nH]cc(-c5ccc(C(N)=O)cc5)c4c3)c2)CC1 [Example 156, 4-{5-[3-(4-methyl-piperazin-1-ylmethyl)-phenyl]-1H-pyrrolo[2,3-b]pyridin-3-yl}-benzamide]	< 100
CC(=O)N1CCN(Cc2ccc(-c3cnc4[nH]cc(-c5ccc(C(N)=O)cc5)c4c3)cc2)CC1 [Example 157, 4-{5-[4-(4-acetyl-piperazin-1-ylmethyl)-phenyl]-1H-pyrrolo[2,3-b]pyridin-3-yl}-benzamide]	< 100
CN1CCN(Cc2ccc(-c3cnc4[nH]cc(-c5ccc(C(N)=O)cc5)c4c3)cc2)CC1=O [Example 158, 4-{5-[4-(4-methyl-3-oxo-piperazin-1-ylmethyl)-phenyl]-1H-pyrrolo[2,3-b]pyridin-3-yl}-benzamide]	< 100
CN1CCN(Cc2ccc(-c3c[nH]c4ncc(-c5ccc(C(N)=O)cc5)cc34)cc2)CC1 [Example 162, 4-{3-[4-(4-methyl-piperazin-1-ylmethyl)-phenyl]-1H-pyrrolo[2,3-b]pyridin-5-yl}-benzamide]	< 100
CN1CCN(Cc2ccc(-c3c[nH]c4ncc(-c5ccc6[nH]ccc6c5)cc34)cc2)CC1 [Example 163, 5-(1H-indol-5-yl)-3-[4-(4-methyl-piperazin-1-ylmethyl)-phenyl]-1H-pyrrolo[2,3-b]pyridine]	> 1000
CNC(=O)c1ccc(-c2c[nH]c3ncc(-c4ccc(CN5CCN(C)CC5)cc4)cc23)cc1 [Example 165, N-methyl-4-{5-[4-(4-methyl-piperazin-1-ylmethyl)-phenyl]-1H-pyrrolo[2,3-b]pyridin-3-yl}-benzamide]	< 100
c1cc2cc(-c3c[nH]c4ncc(-c5ccc(CN6CCOCC6)cc5)cc34)ccc2[nH]1 [Example 169, 4-(4-(3-(1H-indol-5-yl)-1H-pyrrolo[2,3-b]pyridin-5-yl)benzyl)morpholine]	< 100
CN1CCN(Cc2ccc(-c3cnc4[nH]cc(-c5ccc(F)cc5)c4c3)cc2)CC1 [Example 170]	> 1000
CN1CCN(Cc2ccc(-c3cnc4[nH]cc(-c5ccc(C(F)(F)F)cc5)c4c3)cc2)CC1 [Example 171]	> 1000
c1ccc(CN2CCN(Cc3ccc(-c4cnc5[nH]cc(-c6ccc7[nH]ccc7c6)c5c4)cc3)CC2)cc1 [Example 178]	100 to 1000

Structure (SMILES)	IC50 [nM]
CC(C)(C)CC(=O)N1CCN(Cc2ccc(-c3cnc4[nH]cc(-c5ccc6[nH]ccc6c5)c4c3)cc2)CC1 [Example 182]	< 100
CCOC(=O)N1CCN(Cc2ccc(-c3cnc4[nH]cc(-c5ccc6[nH]ccc6c5)c4c3)cc2)CC1 [Example 183]	< 100
COC(=O)N1CCN(Cc2ccc(-c3cnc4[nH]cc(-c5ccc6[nH]ccc6c5)c4c3)cc2)CC1 [Example 184]	< 100
CC(C)C(=O)N1CCN(Cc2ccc(-c3cnc4[nH]cc(-c5ccc6[nH]ccc6c5)c4c3)cc2)CC1 [Example 186]	< 100
CCC(=O)N1CCN(Cc2ccc(-c3cnc4[nH]cc(-c5ccc6[nH]ccc6c5)c4c3)cc2)CC1 [Example 187]	< 100
COCC(=O)N1CCN(Cc2ccc(-c3cnc4[nH]cc(-c5ccc6[nH]ccc6c5)c4c3)cc2)CC1 [Example 188]	< 100
CCS(=O)(=O)N1CCN(Cc2ccc(-c3cnc4[nH]cc(-c5ccc6[nH]ccc6c5)c4c3)cc2)CC1 [Example 189]	< 100
CS(=O)(=O)N1CCN(Cc2ccc(-c3cnc4[nH]cc(-c5ccc6[nH]ccc6c5)c4c3)cc2)CC1 [Example 190]	< 100
O=C(CCO)N1CCN(Cc2ccc(-c3cnc4[nH]cc(-c5ccc6[nH]ccc6c5)c4c3)cc2)CC1 [Example 191]	< 100
COCCC(=O)N1CCN(Cc2ccc(-c3cnc4[nH]cc(-c5ccc6[nH]ccc6c5)c4c3)cc2)CC1 [Example 192]	< 100
O=C(CC1CC1)N1CCN(Cc2ccc(-c3cnc4[nH]cc(-c5ccc6[nH]ccc6c5)c4c3)cc2)CC1 [Example 193]	< 100
CC(C)CC(=O)N1CCN(Cc2ccc(-c3cnc4[nH]cc(-c5ccc6[nH]ccc6c5)c4c3)cc2)CC1 [Example 194]	< 100
O=C1CCC(C(=O)N2CCN(Cc3ccc(-c4cnc5[nH]cc(-c6ccc7[nH]ccc7c6)c5c4)cc3)CC2)N1 (centres unmarked) [Example 195]	< 100
CC(=O)N1CCN(Cc2ccc(-c3cnc4[nH]cc(-c5ccc6[nH]ccc6c5)c4c3)cc2)CC1C (centres unmarked) [Example 197, 1-(4-(4-(3-(1H-indol-5-yl)-1H-pyrrolo[2,3-b]pyridin-5-yl)benzyl)-2-methylpiperazin-1-yl)ethanone]	< 100
CC1CN(Cc2ccc(-c3cnc4[nH]cc(-c5ccc6[nH]ccc6c5)c4c3)cc2)CCN1C (centres unmarked) [Example 198, 5-(4-((3,4-dimethylpiperazin-1-yl)methyl)phenyl)-3-(1H-indol-5-yl)-1H-pyrrolo[2,3-b]pyridine]	< 100
c1cn(Cc2ccc(-c3cnc4[nH]cc(-c5ccc6[nH]ccc6c5)c4c3)cc2)cn1 [Example 199, 5-(4-((1H-imidazol-1-yl)methyl)phenyl)-3-(1H-indol-5-yl)-1H-pyrrolo[2,3-b]pyridine]	< 100
CN1CCN(Cc2ccc(-c3cnc4[nH]cc(-c5ccc6nccc(O)c6c5)c4c3)cc2)CC1 [Example 200]	< 100
CN1CCN(Cc2ccc(-c3cnc4[nH]cc(-c5cnc6[nH]ccc6c5)c4c3)cc2)CC1 [Example 202]	< 100
CN1CCN(Cc2ccc(-c3cnc4[nH]cc(-c5ccc6ncccc6c5)c4c3)cc2)CC1 [Example 203]	< 100
[2H]c1cc2cc(-c3c[nH]c4ncc(-c5ccc(CN6CCN(C)CC6)cc5)cc34)ccc2[nH]1 [Example 206]	< 100

System: not listed separately
Assay: Pharmacokinetic evaluation in mice (plasma and brain AUC)
Format: in vivo
Set-up: unit not given here
Conditions: CL57 BL/6 mice, single IV injection 10 mg/kg, brain homogenate
Procedure: Several compounds disclosed herein were evaluated in a standard murine pharmacokinetic model. […] Three mice in each group were used for blood and brain collection at each time point. […] The brain of each animal was collected after the final blood collection. The whole tissue was harvested, excised and rinsed by saline, dried by filter paper, and then placed into one tube per tissue per animal. All samples were stored at −20° C. until bioanalysis. Compound concentrations in plasma and brain homogenate were determined using a high performance liquid chromatography/mass spectrometry (HPLC/MS/MS) method (Agilent 1100 series HPLC, AB Inc. API4000 triple-quadrupole with an ESI interface and Analyst 1.4 software). Results in the form of area under the time-versus-concentration curve (AUC) are given below in Table 11.

Structure (SMILES)	AUC Brain
COc1cc(-c2cnc3[nH]cc(-c4ccc5[nH]ccc5c4)c3c2)cc(OC)c1OC [Example 1, 3-(1H-indol-5-yl)-5-(3,4,5-trimethoxyphenyl)-1H-pyrrolo[2,3-b]pyridine]	+ (+ indicates ≧500)
CN1CCN(Cc2ccc(-c3cnc4[nH]cc(-c5ccc6[nH]ccc6c5)c4c3)cc2)CC1 [Example 32, 3-(1H-indol-5-yl)-5-(4-((4-methylpiperazin-1-yl)methyl)phenyl)-1H-pyrrolo[2,3-b]pyridine]	+ (+ indicates ≧500)
